Laboratory results published in patent US20250361239A1, “PROTEIN DEGRADERS AND USES THEREOF” (ZHUHAI YUFAN BIOTECHNOLOGIES CO., LTD., priority 2022, published 2025).

Legend:
GSPT1 = target: T1, GSPT1 (Homo sapiens, UniProt P15170+Q96SW2); assay: Degradation of GSPT1 by the compounds (HiBiT signal in GSPT1/HEK293 hibit cells); assay type: cell-based; conditions: 6 h incubation, Nano Glo HiBiT Lytic Detection
T1 construct: host or cells: HEK293
Description: GSPT1/HEK293 hibit cell lines were constructed by Shanghai BioDuro Co., Ltd., HEK293 cell lines were purchased from ATCC (Cat #ATCC® CRL-1573™), DMEM media were purchased from ATCC (Cat #ATCC® 30-2002™), FBS was purchased from Gibco (Cat #10091148), Nano Glo HiBiT Lytic Detection System was purchased from Promega (Cat #N3040), and 96-well plates were purchased from coming (Cat #3610).
The degradation of GSPT1 by the compounds was determined by measuring the intensity of hibit signals in cells. Firstly, the cells were digested with pancreatin, and the digestion was then terminated with medium. The cells were centrifuged, and the supernatant was discarded. The centrifuged cells were resuspended in a fresh complete medium, and the cell density was adjusted to 2.5×10^4 cells/mL. The resuspended cells were inoculated into an opaque 96-well cell culture plate at 100 μL of cell suspension per well, and the cell culture plate was incubated in a cell incubator at 37° C. overnight. The next day, dilutions (20 μL) of compounds with different concentrations were added, and the plate was incubated in a cell incubator for 6 h. After 6 h, 60 μL of Nano Glo HiBiT Lytic Detection System reagent was added and the luminescence values were read on the instrument.
According to the corresponding degradation rate and concentration of each gradient concentration well, a gradient curve of degradation rate was fitted using XLFit software, and the DC50 values of compounds were calculated.

HL60 cells = assay: HL60 cell killing experiment (CellTiter-Glo cell viability); assay type: cell-based; conditions: CTG luminescence
Description: HL60 cell lines were purchased from ATCC (Cat #ATCC® CCL-240™), IMDM media were purchased from ATCC (Cat #ATCC® 30-2005™), FBS was purchased from Gibco (Cat #10091148), celltiter-glo luminescent cell viability assay was purchased from promega (Cat #G7572), and 96-well plates were purchased from corning (Cat #3610).
The effect of compounds on the growth of HL60 cells was determined by measuring cell viability. Firstly, cells in the logarithmic growth phase were collected and centrifuged, and the culture supernatant was discarded. The centrifuged cells were resuspended in a fresh complete medium, and the cell density was adjusted to 5×10^4 cells/mL. The resuspended cells were inoculated into two opaque 96-well cell culture plates at 100 μL of cell suspension per well, and the cell culture plates were incubated in a cell incubator at 37° C. for 4 h. After 4 h, dilutions (20 μL) of compounds with different concentrations were added. After one of the cell plates was cooled to room temperature, 60 μL of CTG reagent was added, and the luminescence values were read on the instrument as G0. The other one was incubated in a cell incubator for 48 h. After 48 h, 60 μL of CTG reagent was added, and the luminescence values were read on the instrument as G3.
According to the corresponding proliferation rate and concentration of each gradient concentration well, a gradient curve of cell proliferation was fitted using XLFit software, and the GI50 values of compounds were calculated.

[1] = Homo sapiens, HL-60, 48 h incubation

T1 sequence (P15170 whole entry): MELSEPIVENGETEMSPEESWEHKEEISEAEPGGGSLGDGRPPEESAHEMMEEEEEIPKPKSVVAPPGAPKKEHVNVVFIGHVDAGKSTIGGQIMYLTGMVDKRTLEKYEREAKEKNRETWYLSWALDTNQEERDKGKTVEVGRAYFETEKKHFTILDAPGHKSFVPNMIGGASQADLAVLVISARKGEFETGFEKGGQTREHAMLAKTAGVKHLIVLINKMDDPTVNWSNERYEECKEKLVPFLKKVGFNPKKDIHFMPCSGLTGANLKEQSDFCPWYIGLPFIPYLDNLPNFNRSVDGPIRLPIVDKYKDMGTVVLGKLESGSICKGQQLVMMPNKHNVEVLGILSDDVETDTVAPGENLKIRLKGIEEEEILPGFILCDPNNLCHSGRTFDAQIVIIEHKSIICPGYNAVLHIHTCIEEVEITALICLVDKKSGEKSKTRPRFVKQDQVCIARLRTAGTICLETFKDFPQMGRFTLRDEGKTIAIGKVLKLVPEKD
T1 sequence (Q96SW2 whole entry): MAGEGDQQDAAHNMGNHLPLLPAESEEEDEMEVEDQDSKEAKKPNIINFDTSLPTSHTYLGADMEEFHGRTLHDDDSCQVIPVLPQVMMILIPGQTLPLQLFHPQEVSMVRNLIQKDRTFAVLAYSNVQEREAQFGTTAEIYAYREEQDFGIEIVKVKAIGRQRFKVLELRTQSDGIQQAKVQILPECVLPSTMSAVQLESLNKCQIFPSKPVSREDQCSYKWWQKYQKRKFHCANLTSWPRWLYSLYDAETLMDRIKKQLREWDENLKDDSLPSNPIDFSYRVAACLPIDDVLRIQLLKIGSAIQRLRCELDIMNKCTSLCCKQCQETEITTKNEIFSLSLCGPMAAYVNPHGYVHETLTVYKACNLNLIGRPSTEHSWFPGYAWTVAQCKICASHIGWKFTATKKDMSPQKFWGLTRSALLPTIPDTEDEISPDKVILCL
T1 sequence (Q16531 whole entry partner): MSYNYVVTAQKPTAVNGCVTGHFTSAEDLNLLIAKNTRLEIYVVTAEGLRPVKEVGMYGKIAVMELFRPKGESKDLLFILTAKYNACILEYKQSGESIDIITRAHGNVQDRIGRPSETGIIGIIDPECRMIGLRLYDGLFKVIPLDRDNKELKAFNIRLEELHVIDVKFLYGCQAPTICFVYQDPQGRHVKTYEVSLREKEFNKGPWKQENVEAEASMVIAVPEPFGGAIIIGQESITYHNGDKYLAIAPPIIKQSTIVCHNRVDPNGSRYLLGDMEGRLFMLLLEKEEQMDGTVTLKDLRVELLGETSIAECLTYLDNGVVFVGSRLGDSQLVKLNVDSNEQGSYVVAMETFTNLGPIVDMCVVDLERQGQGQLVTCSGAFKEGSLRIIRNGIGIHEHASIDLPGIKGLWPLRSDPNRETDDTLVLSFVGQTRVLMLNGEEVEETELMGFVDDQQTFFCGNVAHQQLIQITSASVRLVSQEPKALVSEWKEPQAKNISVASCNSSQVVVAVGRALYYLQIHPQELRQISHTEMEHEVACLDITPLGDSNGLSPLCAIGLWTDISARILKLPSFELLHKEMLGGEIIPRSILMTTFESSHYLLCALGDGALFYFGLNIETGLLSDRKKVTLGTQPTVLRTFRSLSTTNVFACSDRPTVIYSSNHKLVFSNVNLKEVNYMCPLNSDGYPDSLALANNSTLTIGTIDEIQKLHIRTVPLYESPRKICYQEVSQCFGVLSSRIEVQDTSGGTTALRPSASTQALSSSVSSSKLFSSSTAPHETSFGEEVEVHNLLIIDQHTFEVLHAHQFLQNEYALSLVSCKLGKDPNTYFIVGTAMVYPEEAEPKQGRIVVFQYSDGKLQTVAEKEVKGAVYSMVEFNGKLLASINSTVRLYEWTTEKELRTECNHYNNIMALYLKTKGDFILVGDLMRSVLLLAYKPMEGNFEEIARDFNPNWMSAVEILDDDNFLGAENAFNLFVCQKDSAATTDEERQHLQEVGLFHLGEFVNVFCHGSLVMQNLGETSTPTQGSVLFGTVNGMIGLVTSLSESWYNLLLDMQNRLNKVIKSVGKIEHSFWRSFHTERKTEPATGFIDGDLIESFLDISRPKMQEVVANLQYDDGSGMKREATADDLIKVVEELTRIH

Row | SMILES | DC50 (GSPT1) | GI50 (HL60 cells; [1]) | GI50 (HL60 cells; 48 h incubation)
1 | O=C1CCC(N2C(=O)c3cccc(NCc4cccc(C(=O)NC5CCC(c6nsc7ccccc67)CC5)c4)c3C2=O)C(=O)N1 (single isomer, unassigned) [Example 52] | < 100 nM | < 100 nM | 
2 | O=C1CCC(N2C(=O)c3cccc(NCc4cccc(C(=O)NC5CCC(c6nsc7ccccc67)CC5)c4)c3C2=O)C(=O)N1 (single isomer, unassigned) [Example 53] | < 100 nM |  | < 100 nM
3 | O=C1CCC(N2C(=O)c3cccc(NCc4cccc(C(=O)NC5CCCC(F)C5)c4)c3C2=O)C(=O)N1 (stereo not shown) [Example 1] | < 100 nM | < 100 nM | 
4 | COC1CCCC(NC(=O)c2cccc(CNc3cccc4c3C(=O)N(C3CCC(=O)NC3=O)C4=O)c2)C1 (stereo not shown) [Example 2] | < 100 nM | < 100 nM | 
5 | O=C1CCC(N2C(=O)c3cccc(NCc4cccc(C(=O)NC5CCCC(F)(F)C5)c4)c3C2=O)C(=O)N1 (stereo not shown) [Example 3] | < 100 nM |  | 
6 | O=C1CCC(N2C(=O)c3cccc(NCc4cccc(C(=O)NC5CCC(c6ccccc6)CC5)c4)c3C2=O)C(=O)N1 (stereo not shown) [Example 4] | < 100 nM |  | 
7 | O=C1CCC(N2C(=O)c3cccc(NCCCCC(=O)NC4CCC(c5nc6ccccc6[nH]5)CC4)c3C2=O)C(=O)N1 (stereo not shown) [Example 5] | < 100 nM | < 100 nM | 
8 | O=C1CCC(N2C(=O)c3cccc(NCCCCC(=O)NC4CCC(c5nc6ccncc6[nH]5)CC4)c3C2=O)C(=O)N1 (stereo not shown) [Example 6] | < 100 nM | < 100 nM | 
9 | Cn1c(C2CCC(NC(=O)CCCCNc3cccc4c3C(=O)N(C3CCC(=O)NC3=O)C4=O)CC2)nc2ccncc21 (stereo not shown) [Example 8] | < 100 nM | < 100 nM | 
10 | Cn1c(C2CC(NC(=O)c3cccc(CNc4cccc5c4C(=O)N(C4CCC(=O)NC4=O)C5=O)c3)C2)nc2ccncc21 (stereo not shown) [Example 9] | < 100 nM |  | 
11 | O=C1CCC(N2C(=O)c3cccc(NCc4cccc(C(=O)NC5CCC(c6cc7ccccc7o6)CC5)c4)c3C2=O)C(=O)N1 (stereo not shown) [Example 12] | < 100 nM | < 100 nM | 
12 | O=C1CCC(N2C(=O)c3cccc(NCc4cccc(C(=O)NC5CCC(c6coc7ccccc67)CC5)c4)c3C2=O)C(=O)N1 (stereo not shown) [Example 13] | < 100 nM | < 100 nM | 
13 | O=C1CCC(N2C(=O)c3cccc(NCc4cccc(C(=O)NC5CCC(c6n[nH]c7ccccc67)CC5)c4)c3C2=O)C(=O)N1 (stereo not shown) [Example 14] | < 100 nM | < 100 nM | 
14 | O=C1CCC(N2C(=O)c3cccc(NCc4cccc(C(=O)NC5CCC(c6n[nH]c7ccccc67)CC5)c4)c3C2=O)C(=O)N1 (stereo not shown) [Example 15] | < 100 nM |  | < 100 nM
15 | O=C1CCC(N2C(=O)c3cccc(NCc4cccc(C(=O)NC5CCC(c6nc7ccccc7o6)CC5)c4)c3C2=O)C(=O)N1 (stereo not shown) [Example 17] | < 100 nM |  | < 100 nM
16 | O=C1CCC(N2C(=O)c3cccc(NCc4cccc(C(=O)NC5CCC(c6nc7cccnc7[nH]6)CC5)c4)c3C2=O)C(=O)N1 (stereo not shown) [Example 18] | < 100 nM | < 100 nM | 
17 | O=C1CCC(N2C(=O)c3cccc(NCc4ccnc(C(=O)NC5CCC(c6nc7ccccc7[nH]6)CC5)c4)c3C2=O)C(=O)N1 (stereo not shown) [Example 19] | < 100 nM | < 100 nM | 
18 | O=C1CCC(N2C(=O)c3cccc(NCc4cccc(C(=O)NC5CCC(c6n[nH]c7ccncc67)CC5)c4)c3C2=O)C(=O)N1 (stereo not shown) [Example 20] |  | < 100 nM | 
19 | Cn1c(C2CCC(NC(=O)c3cccc(CNc4cccc5c4C(=O)N(C4CCC(=O)NC4=O)C5=O)n3)CC2)nc2ccncc21 (stereo not shown) [Example 21] | < 100 nM | < 100 nM | 
20 | O=C1CCC(N2C(=O)c3cccc(NCc4ccnc(C(=O)NC5CCC(c6nc7ccccc7o6)CC5)c4)c3C2=O)C(=O)N1 (stereo not shown) [Example 22] | < 100 nM | < 100 nM | 
21 | O=C1CCC(N2C(=O)c3cccc(NCc4ccnc(NC[C@H]5CC[C@H](c6nc7cccnc7s6)CC5)c4)c3C2=O)C(=O)N1 (stereo partly shown) [Example 28] |  | < 100 nM | 

Row | SMILES | DC50 (GSPT1) | GI50 (HL60 cells; [1]) | GI50 (HL60 cells; 48 h incubation)
22 | Cn1c(N2CCC(NC(=O)c3cc(CNc4cccc5c4C(=O)N(C4CCC(=O)NC4=O)C5=O)ccn3)CC2)nc2ccccc21 (stereo not shown) [Example 41] |  | < 100 nM | 
23 | O=C1CCC(N2C(=O)c3cccc(NCc4cccc(C(=O)NC5CCC(c6csc7ccccc67)CC5)c4)c3C2=O)C(=O)N1 (stereo not shown) [Example 45] |  | < 100 nM | 
24 | O=C1CCC(N2C(=O)c3cccc(NCc4cccc(C(=O)NC5CCC(c6csc7ccccc67)CC5)c4)c3C2=O)C(=O)N1 (stereo not shown) [Example 46] |  |  | < 100 nM
25 | O=C1CCC(N2C(=O)c3cccc(NCc4cccc(C(=O)NC5CCC(c6csc7ncccc67)CC5)c4)c3C2=O)C(=O)N1 (stereo not shown) [Example 54] |  | < 100 nM | 
26 | CN(C[C@H]1CC[C@H](c2nc3cccnc3s2)CC1)c1cc(CNc2cccc3c2C(=O)N(C2CCC(=O)NC2=O)C3=O)ccn1 (stereo partly shown) [Example 64] |  | < 100 nM | 
27 | Cn1c2ccccc2nc1[C@H]1CC[C@H](N2Cc3ccc(CNc4cccc5c4C(=O)N(C4CCC(=O)NC4=O)C5=O)cc3C2=O)CC1 (stereo partly shown) [Example 68] |  | < 100 nM | 
28 | Cn1c2ccc(CNc3cccc4c3C(=O)N(C3CCC(=O)NC3=O)C4=O)cc2nc1[C@H]1CC[C@H](c2nc3cccnc3s2)CC1 (stereo partly shown) [Example 73] |  | < 100 nM | 
29 | Cn1c2cnccc2nc1[C@H]1CC[C@H](C(=O)Nc2cccc(CNc3cccc4c3C(=O)N(C3CCC(=O)NC3=O)C4=O)c2F)CC1 (stereo partly shown) [Example 78] |  | < 100 nM | 
30 | O=C1CCC(N2C(=O)c3cccc(NCc4cccc5c4CCN5C(=O)[C@H]4CC[C@H](c5nc6cccnc6s5)CC4)c3C2=O)C(=O)N1 (stereo partly shown) [Example 87] |  | < 100 nM | 
31 | COc1cc2nc(C3CCC(NC(=O)c4cccc(CNc5cccc6c5C(=O)N(C5CCC(=O)NC5=O)C6=O)c4)CC3)n(C)c2cn1 (stereo not shown) [Example 88] |  | < 100 nM | 
32 | O=C1CCC(N2C(=O)c3cccc(NC4(c5ccnc(C(=O)N[C@H]6CC[C@H](c7nc8cccnc8s7)CC6)c5)CC4)c3C2=O)C(=O)N1 (stereo partly shown) [Example 92] |  | < 100 nM | 
33 | CN(C)c1ccc2c(c1)nc(C1CCC(NC(=O)c3cccc(CNc4cccc5c4C(=O)N(C4CCC(=O)NC4=O)C5=O)c3)CC1)n2C (stereo not shown) [Example 102] |  | < 100 nM | 
34 | CN(C)c1cc2c(cn1)nc([C@H]1CC[C@H](C(=O)Nc3cccc(CNc4cccc5c4C(=O)N(C4CCC(=O)NC4=O)C5=O)c3)CC1)n2C (stereo partly shown) [Example 103] |  | < 100 nM | 
35 | CN(C)c1cc2c(cn1)nc([C@H]1CC[C@H](NC(=O)c3cc(CNc4cccc5c4C(=O)N(C4CCC(=O)NC4=O)C5=O)ccn3)CC1)n2C (stereo partly shown) [Example 106] |  | < 100 nM | 
36 | Cn1c2cc(N)ccc2nc1[C@H]1CC[C@H](NC(=O)c2cc(CNc3cccc4c3C(=O)N(C3CCC(=O)NC3=O)C4=O)ccn2)CC1 (stereo partly shown) [Example 131] | < 100 nM |  | 
37 | COc1ccc(CNc2cccc3c2C(=O)N(C2CCC(=O)NC2=O)C3=O)cc1C(=O)N[C@H]1CC[C@H](c2nc3cc(N)cnc3s2)CC1 (stereo partly shown) [Example 132] | < 100 nM |  | 
38 | COc1ccc(CNc2cccc3c2C(=O)N(C2CCC(=O)NC2=O)C3=O)cc1C(=O)N[C@H]1CC[C@H](c2nc3cc(N)ccc3s2)CC1 (stereo partly shown) [Example 133] | < 100 nM |  | 
39 | COc1ncc(CNc2cccc3c2C(=O)N(C2CCC(=O)NC2=O)C3=O)cc1C(=O)N[C@H]1CC[C@H](c2nc3cccnc3s2)CC1 (stereo partly shown) [Example 134] | < 100 nM |  | 
40 | O=C1CCC(N2Cc3c(OCc4ccnc(NC[C@H]5CC[C@H](c6nc7cccnc7s6)CC5)c4)cccc3C2=O)C(=O)N1 (stereo partly shown) [Example 135] | < 100 nM |  | 
41 | COc1ccc2nc([C@H]3CC[C@H](CNc4cc(COc5cccc6c5CN(C5CCC(=O)NC5=O)C6=O)ccn4)CC3)sc2n1 (stereo partly shown) [Example 136] | < 100 nM |  | 
42 | COc1ccc2nc([C@H]3CC[C@H](CNc4cc(CNc5cccc6c5C(=O)N(C5CCC(=O)NC5=O)C6=O)ccn4)CC3)sc2n1 (stereo partly shown) [Example 137] | < 100 nM |  | 
